Consider ten compounds from US7825156B2, “Method of treating bipolar depression with a benzamide derivative” (Copharms, priority 2007, dated 2010).

In data set [1] the test system is bipolar I disorder relapse. The note with it: add-on treatment of bipolar I patients, cited from earlier work.
Another data set has as its system bipolar depression. In words: Case reports: treatment of bipolar depression in patients with bipolar I or II disorder. The note with it: for depressive disorders: amisulpride 150 mg/d.
The subject of a further data set is bipolar disorder. The data set is described as follows: Earlier treatments in the case histories (manic episodes, maintenance, earlier depressive condition). It counts as in vivo, patient. To be noted: for manic episode, treatment outcome: Case 10, bipolar I, most recent episode mixed, haloperidol and levomepromazine given together.
Data set [2] in a line: Serum levels of concomitant drugs in the case patients.

Method for bipolar depression: Bipolar depressive patient is here defined as a patient with either Bipolar I Disorder, Most Recent Episode Depressed; Bipolar I Disorder, Most Recent Episode Mixed or Bipolar II Disorder (Recurrent Major Depressive Episodes With Hypomanic Episodes) (Classification 296.5×, 296.6×, and 296.89 respectively of DSM-IV).
Subject diagnosed with bipolar II disorder, recurrent major depressive episodes with hypomanic episodes). They are admitted for bipolar depression and amisulpride treatment of 200 mg/d is initiated.
Subject diagnosed with bipolar II disorder, recurrent major depressive episodes with hypomanic episodes). They are admitted for bipolar depression and amisulpride treatment of 100 mg/d is initiated.
Subject, diagnosed with bipolar disorder I, most recent episode depressed. Upon admission at the hospital a treatment with amisulpride 100 mg/g was initiated.
Subject diagnosed with bipolar I disorder, most recent episode mixed. The patient is hospitalised for bipolar depression and treatment with amisulpride 150 mg/g initiated.
Subject, diagnosed with bipolar I disorder, most recent episode depressed, for the first time. The patient has been on lithium for about 3 years. They are compliant with their treatment and lithium serum levels remains stable around 0.7-0.9 mEq/L. They are admitted for bipolar depression with lithium serum level were 0.8 mEq/L. The day after they received an amisulpride treatment of 100 mg/d.
Subject, diagnosed with bipolar disorder I, most recent episode depressed, is hospitalized for manic state. Their illness started 4 years ago. The patient suffers bipolar disorder type I. The patient has already shown two manic episodes. At entrance, they received divalproate at a dose of 1250 mg/d. […] The patient was diagnosed with major depression. Then, a treatment with amisulpride (150 mg/d) is established.
Subject diagnosed with bipolar I disorder, most recent episode depressed. Their family informed the therapist of a dramatic decrease of their professional performance since 6 months. The patient is admitted for bipolar depression and amisulpride 250 mg/d is initiated.
Subject diagnosed with bipolar II disorder, recurrent major depressive episodes with hypomanic episodes).
Subject diagnosed with bipolar I disorder, most recent episode depressed. […] A treatment with amisulpride 150 mg/d is then initiated.
Subject diagnosed with bipolar I disorder, most recent episode mixed. […] The patient however refused to follow a long course treatment because they seemed not, according to themself and their family, present severe symptoms.
Subject diagnosed with bipolar I disorder, most recent episode depressed. […] At admission, their lithium serum level was 0.7 mEq/L and their valproate serum level was 100 mg/ml.
Subject diagnosed with bipolar I disorder, most recent episode depressed.
Subject diagnosed with bipolar I disorder, most recent episode depressed. After several manic and depressive episodes the patient seems stabilised with a combination of lithium 1600 mg/d and paroxetine 40 mg/d.
Upon admission at the hospital the lithium serum level are controlled and the treatment with paroxetine is stopped. A treatment with amisulpride 100 mg/d is established.
Method for bipolar disorder: At entrance, they received divalproate at a dose of 1250 mg/d. […] The patient was diagnosed with major depression. Then, a treatment with amisulpride (150 mg/d) is established.
A treatment with amisulpride 150 mg/d is then initiated.
At admission, their lithium serum level was 0.7 mEq/L and their valproate serum level was 100 mg/ml.

Consider `CCN1CCCC1CNC(=O)c1cc(S(=O)(=O)CC)c(N)cc1OC` (stereo not drawn) [amisulpride, 4-amino-N-[(1-ethylpyrrolidin-2-yl)methyl]-5-(ethylsulfonyl)-2-methoxybenzamide], for which, in data set [1] (period of amisulpride therapy, Clin Pract Epidemiol Ment Health 2006, 2:19), the overall relapse rate result was “statistically significant decrease”. For the same compound, the “relapse rate, manic episodes” value in data set [1] (only manic episodes) is given as “reached statistical significance”. Besides, the depressive state entry in the data set with bipolar depression (Case 1, bipolar II, amisulpride 200 mg/d, after 4 weeks) is given as “started to markedly decrease”; in the data set on bipolar depression (Case 1, bipolar II, amisulpride 200 mg/d, after 6 weeks) it was “disappeared completely”; in the data set on bipolar depression (Case 5, bipolar I, most recent episode depressed, on lithium, amisulpride 100 mg/d, after 3 weeks), “started to vanish progressively”; in the data set on bipolar depression (Case 5, on lithium, amisulpride 100 mg/d, after 6 weeks), “disappeared completely”. The “manic or depressive recurrence” value in the data set with bipolar depression (Case 1, after 3 years of amisulpride 100 mg/d) is listed as “no manic or depressive recurrence”; with bipolar depression (Case 5, after 3 years of treatment) it was “no manic or depressive recurrence”. The depressive condition result was “improved” in the data set with bipolar depression (Case 2, bipolar II, amisulpride 100 mg/d, after 3 weeks); “almost disappeared” in the data set on bipolar depression (Case 9, amisulpride 150 mg/d after fluoxetine, after 2 weeks); “improved” with bipolar depression (Case 11, amisulpride 50 mg/d added, after 15 days); “recovery” with bipolar depression (Case 12, bipolar I, most recent episode depressed, 150 mg of amisulpride, after 4 weeks). Moreover, the relapse entry with bipolar depression (Case 2, after 4 years of amisulpride 100 mg/d) is given as “any relapse has still not occurred”; with bipolar depression (Case 3, after 4 years of amisulpride 50 mg/d) it was “no relapse”; with bipolar depression (Case 4, after 4 years of amisulpride 150 mg/d), “no relapse”; with bipolar depression (Case 8, amisulpride, after 6 months), “no relapse”; in the data set on bipolar depression (Case 10, after 7 months of amisulpride), “any relapse has still not occurred”; in the data set with bipolar depression (Case 12, after one year of 50 mg amisulpride), “No relapse”. Besides, the relapse result in the data set on bipolar depression (Case 13, after two years of 100 mg/d) is listed as “No relapse”. For the same compound, the depressive disorder result in the data set on bipolar depression (Case 3, bipolar I, most recent episode depressed, amisulpride 100 mg/g, after 3 weeks) was “significant improvement”; in the data set on bipolar depression (Case 4, bipolar I, most recent episode mixed, amisulpride 150 mg/g, early course), “rapidly improved”; in the data set on bipolar depression (Case 4, amisulpride 150 mg/g, after 4 weeks) it was “disappeared”. Moreover, the depressive disorders result was “improved rapidly” with bipolar depression (Case 6, major depression after divalproate, early course) and “disappear” with bipolar depression (Case 6, after 3 weeks). Moreover, in the data set with bipolar depression (Case 7, bipolar I, most recent episode depressed, amisulpride 250 mg/d, after 3 weeks), the anxio-depressive element result was “disappears”. Further, the “recurrent manic or depressive episode” value with bipolar depression (Case 7, after 2 years of amisulpride 250 mg/d) is on record as “still not been subject to any recurrent manic or depressive episode”. For the same compound, the “patient's chart” value is listed as “improved” in the data set on bipolar depression (Case 8, after switching from clomipramine to amisulpride 200 mg/d) and “resolved the patient's chart” with bipolar depression (Case 10, amisulpride 300 mg/d, after only one month). Further, the “relapse of depressive or manic episodes” value with bipolar depression (Case 9, after 3 years, amisulpride 100 mg/d) is given as “no relapse of depressive or manic episodes”. Moreover, the “manic or depressive relapses” value with bipolar depression (Case 11, after 4 years with amisulpride) is “no manic or depressive relapses”. The clinical course result in the data set with bipolar depression (Case 13, bipolar I, most recent episode depressed, amisulpride 100 mg/d) is “progressive improvement”. In addition, in the data set on bipolar depression (Case 13, amisulpride 100 mg/d, after 6 weeks), the catatonic condition result is recorded as “disappearance”. The “patient's state” value in the data set with bipolar depression (Case 14, after 3 years of amisulpride 200 mg/d) is “still remains stable”. Moreover, the clinical improvement result in the data set on bipolar depression (Case 14, paroxetine stopped, lithium controlled, amisulpride 100 mg/d, after 3 weeks) is “considerable improvement”. Further, the “effect on bipolar depression” value in the data set on bipolar depression (amisulpride about 50 mg/day to about 300 mg/day (about 20 to about 800 mg/day)) is “clinically beneficial effect”.

On to `NC(=O)N1c2ccccc2C=Cc2ccccc21` [carbamazepine], for which, in the data set with bipolar disorder (Case 9, carbamazepine 800 mg/d for 5 years), the therapeutic outcome was “treated successfully”. Further, the “serum level of carbamazepine” value in data set [2] (Case 9, carbamazepine 800 mg/d, at admission) turned out to be 8000 ng/mL.

Take `CN(C)CCCN1c2ccccc2CCc2ccc(Cl)cc21` [clomipramine]: the “patient's condition (anxiety, agitation, sleep disorders)” value in the data set with bipolar depression (Case 8, bipolar II, clomipramine 100 mg/d, according to their family) is recorded as “deteriorated”.

`CCCC(CCC)C(=O)O.CCCC(CCC)C(=O)[O-].[Na+]` [divalproate]: the manic symptoms entry with bipolar disorder (Case 6, bipolar I, manic state, divalproate 1250 mg/d, after one month) is recorded as “disappeared”. Besides, the depressive condition entry in the data set on bipolar depression (Case 11, combination of lithium and divalproate 750 mg/d, lithium increased to obtain 0.9 mEq/L) was “continued”.

For the compound `CNCCC(Oc1ccc(C(F)(F)F)cc1)c1ccccc1` (stereo not drawn) [fluoxetine], in the data set on bipolar depression (Case 9, fluoxetine 20 mg/d, after 3 weeks), the depressive condition entry is given as “only a small improvement”.

As to `O=C(CCCN1CCC(O)(c2ccc(Cl)cc2)CC1)c1ccc(F)cc1` [haloperidol], the “manic episode, treatment outcome” value with bipolar disorder is on record as “treated successfully”.

For the compound `COc1ccc2c(c1)N(C[C@H](C)CN(C)C)c1ccccc1S2` [levomepromazine], the “manic episode, treatment outcome” value in the data set with bipolar disorder is “treated successfully”.

Consider `[Li]` [lithium, lithium carbonate (Li2CO3)], for which the lithium serum level in data set [2] (Case 5, at admission for bipolar depression) came to 0.8 mEq/L; in data set [2] (Case 11, lithium 1200 mg/d and divalproate 750 mg/d, at admission) it was 0.7 mEq/L. Moreover, in data set [2] (Case 5, on lithium for about 3 years, stable level), the lithium serum levels was 0.7-0.9 mEq/L.

Take `Fc1ccc([C@@H]2CCNC[C@H]2COc2ccc3c(c2)OCO3)cc1` [paroxetine]: the “patient's state” value in the data set with bipolar disorder (Case 14, bipolar I, combination of lithium 1600 mg/d and paroxetine 40 mg/d) is given as “stabilised”.

For `CCOc1ccccc1OCC1CNCCO1` (stereo not drawn) [viloxazine], the “reactive depressive condition, response” value in the data set with bipolar disorder (Case 12, viloxazine during adolescence) is on record as “responded only moderately”.
